Results on two compounds are retold here after patent US20230277518A1, “NK RECEPTOR ANTAGONISTS FOR CANCER PATIENTS” (Acer Therapeutics Inc., priority 2020, published 2023).

The conditions of data set [1]: human, in vivo; cited from earlier work.
The target in data set [2] is CYP2D6 (Homo sapiens, UniProt P10635). The note with it: cited from earlier work.
For data set [3] the following is noted: animal study; cited from earlier work.
For data set [4], the target named is CYP3A4 (Homo sapiens, UniProt P08684). The note with it: liver; cited from earlier work.
Chain of CYP3A4 (P08684 whole entry): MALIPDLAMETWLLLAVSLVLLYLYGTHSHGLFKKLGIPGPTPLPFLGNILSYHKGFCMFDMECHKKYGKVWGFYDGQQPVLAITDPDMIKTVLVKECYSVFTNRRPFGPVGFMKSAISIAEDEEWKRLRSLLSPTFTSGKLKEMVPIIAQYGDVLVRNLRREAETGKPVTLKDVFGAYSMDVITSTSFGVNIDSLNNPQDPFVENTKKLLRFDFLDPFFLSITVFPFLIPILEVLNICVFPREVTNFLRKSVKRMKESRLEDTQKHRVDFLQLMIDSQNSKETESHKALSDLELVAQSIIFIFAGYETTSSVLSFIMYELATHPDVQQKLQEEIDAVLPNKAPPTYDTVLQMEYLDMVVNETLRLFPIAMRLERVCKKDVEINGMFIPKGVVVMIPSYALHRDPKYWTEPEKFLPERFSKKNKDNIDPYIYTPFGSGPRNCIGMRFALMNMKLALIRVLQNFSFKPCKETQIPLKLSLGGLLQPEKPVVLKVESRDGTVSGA
For data set [5] the following is noted: oral dosing, set in the multiple-dose PK model; cited from earlier work.
The nature of data set [6]: Two-compartment PK model of osanetant fit to the Sanofi single-dose study. Also noted: species or system human. As to conditions: two-compartment model parameter. An excerpt:
Osanetant (SR 142801) is an NK3 receptor antagonist originally identified by Sanofi. Patacchini R. et al. 1995, Eur J Pharmacol 278 (1):17-25; Nguyen-Le X. K. et al. 1996, Pharmacology 52 (5):283-91; Beaujouan J. C. et al. 1997, Eur J Pharmacol 319 (2-3):307-16; Emonds-Alt X. et al. 1995, Life Sci 56 (1):P127-32). Osanetant pharmacokinetics (PK) was derived from a Study Report by Sanofi describing concentration curves and PK summary data. A two-compartment PK model was derived from the data the concentration: time curves. […] A two-compartment pharmacokinetic model was fit to the single-dose study in the Sanofi Study report.

Chain of CYP2D6 (P10635 whole entry): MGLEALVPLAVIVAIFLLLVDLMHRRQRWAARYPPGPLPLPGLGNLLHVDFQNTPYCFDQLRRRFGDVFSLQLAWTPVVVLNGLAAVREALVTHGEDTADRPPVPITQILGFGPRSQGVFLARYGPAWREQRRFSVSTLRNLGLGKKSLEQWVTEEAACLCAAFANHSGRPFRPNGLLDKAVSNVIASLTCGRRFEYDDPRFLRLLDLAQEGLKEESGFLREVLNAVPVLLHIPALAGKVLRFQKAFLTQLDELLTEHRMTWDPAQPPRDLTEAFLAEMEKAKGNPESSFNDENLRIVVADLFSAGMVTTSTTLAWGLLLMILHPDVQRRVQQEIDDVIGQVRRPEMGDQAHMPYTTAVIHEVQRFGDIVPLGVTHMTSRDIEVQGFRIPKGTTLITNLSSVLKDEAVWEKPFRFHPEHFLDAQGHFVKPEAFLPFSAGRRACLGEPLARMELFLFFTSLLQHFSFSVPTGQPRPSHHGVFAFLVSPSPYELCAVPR

For the compound `CCNC(=O)[C@@H]1CCCN1C(=O)[C@H](CCCNC(=N)N)NC(=O)[C@H](CC(C)C)NC(=O)[C@@H](CC(C)C)NC(=O)[C@H](Cc1ccc(O)cc1)NC(=O)[C@H](CO)NC(=O)[C@H](Cc1c[nH]c2ccccc12)NC(=O)[C@H](Cc1c[nH]cn1)NC(=O)[C@@H]1CCC(=O)N1` [leuprolide], in data set [1], the “patients who experience increased frequency and/or duration of VMS” value is given as “about 80%”.
On to `CC(=O)N(C)C1(c2ccccc2)CCN(CCC[C@]2(c3ccc(Cl)c(Cl)c3)CCCN(C(=O)c3ccccc3)C2)CC1` [osanetant, (R)—N-(1-(3-(1-benzoyl-3-(3,4-dichlorophenyl)piperidin-3-yl)propyl)-4-phenylpiperidin-4-yl)-N-methylacetamide], for which the CYP2D6 activity result in data set [2] is recorded as “inhibits CYP2D6 activity”. Besides, in data set [3], the Brain/plasma concentration is listed as 0.8. The clearance mechanism result in data set [4] is “CYP3A4 metabolism in the liver is the primary clearance mechanism”. Also, the Bioavailability in data set [5] is recorded as 40%. For the same compound, in data set [6], the Blood_Liver_transport_k was found to be 0.011 min⁻¹, the Q is 13.9 L/min, the Vol_central is reported as 620 L and the Vol_periph stood at 1768 L. Further, in data set [6], the ka amounted to 0.039 min⁻¹.
